In US20240246905A1 (University of Leicester, priority 2021, published 2024):
≈ marks a conversion by molar mass, not a printed value.

Assays:
MRSA 252 [1] = test: MIC, broth micro-dilution; format: cell-based, Staphylococcus aureus; conditions: Staphylococcus aureus, read-out: MIC
Procedure: (§1) E. coli DH5α, P. aeruginosa PA01 and the 53 S. aureus strains were recovered from frozen (−80° C.) glycerol (15% v/v) stocks on Lysogeny agar (LA)—Gram negative and trypticase soy agar (TSA)—plates at 37° C. for 24 hours. Single colonies were placed in either 3 mL Lysogeny broth (LB)—Gram negative or trypticase soy broth (TSB)—Gram positive and incubated at 37° C., 250 rpm for 18 hours.
(§2) Antibiotic MIC's were determined by a broth micro-dilution method according to Clinical Standard Laboratory Institute (CSLI) Guidelines (2017). Briefly, 96-well microplates, each containing 195 μL of the 1:2 dilution antibiotic in TSB, were inoculated with 5 μL of overnight cultured bacteria, diluted to give a starting bacterial concentration of 5×10^5 CFU/mL. The optical density of each well inoculated was recorded every 12 minutes over an 18 hour period at 37° C. The data from this was plotted in OriginPro8 (OriginLab) and sigmoidal curves fitted using the dose response function. Fitted values for each curve were used to calculate the MIC.

MSSA 476 [2] = test: MIC, broth micro-dilution; format: cell-based, Staphylococcus aureus; conditions: Staphylococcus aureus, MSSA, read-out: MIC
Procedure: as §1, §2

MRSA 252 [3] = test: Disc diffusion (Kirby-Bauer), zone of inhibition; format: cell-based, Staphylococcus aureus; conditions: Staphylococcus aureus, 500 μg/mL, '/' = no zone, read-out: Zone of inhibition
Procedure: as §1
(§3) The antibiotic activity was determined using a Kirby-Bauer method according to Clinical Standard Laboratory Institute (CSLI) Guidelines (2017). Briefly, 180 μL of a 1 in 200 dilution (in LB or TSB) of overnight cultures of selected Gram negative and Gram positive bacteria were applied to an agar plate containing the solid growth medium, Mueller-Hinton agar (MHA). Sterile discs, inoculated with 50 μL of antibiotic, were first added to the agar plate before the plates were incubated for 24 hours at 37° C. Following incubation, the zone of inhibition (if it existed) was recorded.

MSSA 476 [4] = test: Disc diffusion (Kirby-Bauer), zone of inhibition; format: cell-based, Staphylococcus aureus; conditions: Staphylococcus aureus, 500 μg/mL, '/' = no zone, read-out: Zone of inhibition
Procedure: as §1, §3

Escherichia coli DH5α = test: Disc diffusion (Kirby-Bauer), zone of inhibition; format: cell-based; conditions: Escherichia coli DH5α; 500 μg/mL; '/' = no zone; read-out: Zone of inhibition
Procedure: as §1, §3

[5] = test system: Staphylococcus aureus 15981; test: Disc diffusion (Kirby-Bauer), zone of inhibition; format: cell-based; conditions: Staphylococcus aureus 15981; 500 μg/mL; '/' = no zone; read-out: Zone of inhibition
Procedure: as §1, §3

[6] = test system: various Staphylococcus aureus strains; test: Disc diffusion, Staphylococcus aureus strain study; format: cell-based; conditions: Staphylococcus aureus, 500 μg/mL
Source text: At this point in the study it was decided to perform a disc diffusion assay study on 50 S. aureus strains. […] Moreover, by employing a range of mutant strains of S. aureus with specific gene-deletions, it was believed that if particular strains were resistant to the lead compounds, it could provide insights on the likely protein target of the lead antibiotics. However, all six of the compounds utilized in this study were able to inhibit growth of all 50 strains of S. aureus assayed at the chosen concentration of 500 μg/mL concentration (Table 5).
as §1, §3

HEK293 cells = test: Cytotoxicity assay, resazurin (CO-ADD); conditions: set concentration of 32 μg/mL
Procedure: The cytotoxicity studies were performed by CO-ADD (The Community for Open Antimicrobial Drug Discovery), funded by the Wellcome trust (UK) and the University of Queensland, Australia.^(28) In this study, the compounds were screened against a human embryonic kidney cell line, HEK293, at a set concentration of 32 μg/mL.
DMEM supplemented with 10% FBS was used as growth media and the cells were incubated together with the compounds for 20 hours at 37° C. in 5% CO2.
Cytotoxicity (or cell viability) was measured by fluorescence, excitation: 560/10 nm, emission: 590/10 nm (F560/590), after addition of 5 μL of 25 μg/mL Resazurin (2.3 μg/mL final concentration) and after incubation for further 3 h at 37° C. in 5% CO2. The fluorescence intensity was measured using a Tecan M1000 Pro monochromator plate reader, using automatic gain calculation CC50 (concentration at 50% cytotoxicity) were calculated by curve fitting the inhibition values vs. log(concentration) using sigmoidal dose-response function, with variable fitting values for bottom, top and slope. The curve fitting was implemented using Pipeline Pilot's dose-response component.

[C-]#[N+]C=Cc1ccc(O)cc1 [Compound 2, 4-(2-Isocyanovinyl)phenol]
MIC (MRSA 252 [1]): 90 µg/mL (≈ 620 µM)
MIC (MSSA 476 [2]): 100 µg/mL (≈ 689 µM)
zone of inhibition at 500 µg/mL (MRSA 252 [3]): 22 mm
zone of inhibition at 500 µg/mL (MSSA 476 [4]): 20 mm
zone of inhibition at 500 µg/mL (Escherichia coli DH5α): 20 mm
zone of inhibition at 500 µg/mL [5]: 22 mm
zone of inhibition at 500 µg/mL ([6]; MRSA, strain MRSA 252): 16 mm
zone of inhibition at 500 µg/mL ([6]; strain ASARM 61): 15 mm
zone of inhibition at 500 µg/mL ([6]; strain ASARM 70): 14 mm
zone of inhibition at 500 µg/mL ([6]; strain ASARM 71): 14 mm
zone of inhibition at 500 µg/mL ([6]; strain ASARM 72): 12 mm
zone of inhibition at 500 µg/mL ([6]; strain ASARM 73): 16 mm
zone of inhibition at 500 µg/mL ([6]; strain ASARM 75): 15 mm
zone of inhibition at 500 µg/mL ([6]; strain ASARM 76): 14 mm
zone of inhibition at 500 µg/mL ([6]; strain ASARM 77): 14 mm
zone of inhibition at 500 µg/mL ([6]; strain ASARM 79): 13 mm
zone of inhibition at 500 µg/mL ([6]; strain ASARM 80): 13 mm
zone of inhibition at 500 µg/mL ([6]; strain EOE 3): 12 mm
zone of inhibition at 500 µg/mL ([6]; strain EOE 23): 16 mm
zone of inhibition at 500 µg/mL ([6]; strain EOE 30): 18 mm
zone of inhibition at 500 µg/mL ([6]; strain EOE 35): 14 mm
zone of inhibition at 500 µg/mL ([6]; strain EOE 41): 17 mm
zone of inhibition at 500 µg/mL ([6]; strain EOE 42): 16 mm
zone of inhibition at 500 µg/mL ([6]; strain EOE 45): 15 mm
zone of inhibition at 500 µg/mL ([6]; strain EOE 52): 14 mm
zone of inhibition at 500 µg/mL ([6]; strain EOE 54): 16 mm
zone of inhibition at 500 µg/mL ([6]; strain EOE 57): 18 mm
zone of inhibition at 500 µg/mL ([6]; strain S139_7_7): 14 mm
zone of inhibition at 500 µg/mL ([6]; strain S197_1_1): 25 mm
zone of inhibition at 500 µg/mL ([6]; strain S197_1_8): 16 mm
zone of inhibition at 500 µg/mL ([6]; strain S197_1_9): 16 mm
zone of inhibition at 500 µg/mL ([6]; strain S197_1_10): 15 mm
zone of inhibition at 500 µg/mL ([6]; strain S295_1_1): 20 mm
zone of inhibition at 500 µg/mL ([6]; strain S295_1_2): 14 mm
zone of inhibition at 500 µg/mL ([6]; strain S295_1_3): 18 mm
zone of inhibition at 500 µg/mL ([6]; strain S364_5_11): 26 mm
zone of inhibition at 500 µg/mL ([6]; strain S364_5_12): 22 mm
zone of inhibition at 500 µg/mL ([6]; strain Sa_TPS 3026): 14 mm
zone of inhibition at 500 µg/mL ([6]; strain Sa_TPS 3072): 16 mm
zone of inhibition at 500 µg/mL ([6]; strain Sa_TPS 3092): 20 mm
zone of inhibition at 500 µg/mL ([6]; strain Sa_TPS 3097): 15 mm
zone of inhibition at 500 µg/mL ([6]; strain Sa_TPS 3103): 16 mm
zone of inhibition at 500 µg/mL ([6]; strain Sa_TPS 3104): 15 mm
zone of inhibition at 500 µg/mL ([6]; strain Sa_TPS 3106): 15 mm
zone of inhibition at 500 µg/mL ([6]; strain Sa_TPS 3118): 18 mm
zone of inhibition at 500 µg/mL ([6]; strain Sa_TPS 3133): 14 mm
zone of inhibition at 500 µg/mL ([6]; strain Sa_TPS 3134): 14 mm
zone of inhibition at 500 µg/mL ([6]; strain USFL 008): 14 mm
zone of inhibition at 500 µg/mL ([6]; strain USFL 009): 14 mm
zone of inhibition at 500 µg/mL ([6]; strain USFL 012): 16 mm
zone of inhibition at 500 µg/mL ([6]; strain USFL 016): 14 mm
zone of inhibition at 500 µg/mL ([6]; strain USFL 018): 15 mm
zone of inhibition at 500 µg/mL ([6]; strain USFL 020): 14 mm
zone of inhibition at 500 µg/mL ([6]; strain USFL 021): 16 mm
zone of inhibition at 500 µg/mL ([6]; strain USFL 028): 15 mm
zone of inhibition at 500 µg/mL ([6]; strain USFL 035): 15 mm
zone of inhibition at 500 µg/mL ([6]; strain USFL 054): 14 mm
toxicity towards the HEK293 cell line (in words) (HEK293 cells): no toxicity
